From ChEMBL document CHEMBL3430912, “GSK Tres Cantos Anti-Kinetoplastid Screening (TCAKS) Data”

Experiments:
[1] = tested on: Trypanosoma brucei brucei; test: GSK_TCAKS: pIC50 Trypanosoma brucei viability assay using luminiscence. Assay plates (1536-well) were prepared. T. brucei cultures were harvested and counted in a CASY cell counter. A parasite suspension was prepared at a final concentration of 5 * 10^4 cells/mL in complete HMI9 medium and 6uL was dispensed to all wells containing compounds using a Multidrop Combi dispenser. 6uL of HMI9 media with 0.4% DMSO were dispensed to control columns. Plates were incubated for 24 h at 37C, 5% CO2 then tempered for 10 min at room temperature. ATP content was quantified by adding 4 uL of CellTiter-Glo Reagent (Promega) according to the manufacturer's instructions. Luminescence was measured using a ViewLux.; assay type: functional, organism-based; details: Lister 427, CASY
Trypanosoma cruzi [2] = test: (§1) GSK_TCAKS: pIC50 H2C9 Imaging: H9c2 Host Cardiomyocytes. […] Cells were then washed once with PBS before infection. T. cruzi trypomastigotes, collected at days 5 to 8 after infection from LLC-MK2 parasite infected cultures, were allowed to swim out for 4h at 37C from a centrifuged pellet (2,500 rpm/10 min/room temperature). Trypomastigotes were then collected and counted in a CASY Cell Counter. Trypomastigotes, in supplemented DMEM, were added to H9c2 cultures in a multiplicity of infection of 1 and incubated for 18 h. Cells were washed once with PBS before incubation of the infected H9c2 monolayer with trypsin (Life-Technologies) to detach cells from the flask. Cells were counted in a CASY Cell Counter using a 150 um capillary and their density set at 5 * 10^4 cells per mL in supplemented assay DMEM. Infected H9c2 were dispensed into 384-well poly-lysine coated assay plates at 50uL per well using a Multidrop Combi dispenser. After seeding them, the plates were incubated at 37C, 5% CO2 for 72h. Cultures were then fixed and stained by addition of 50 uL of a solution containing 8% formaldehyde and 4 uM DRAQ5 DNA dye (BioStatus, UK) per well. […] Five images were collected per well for reliable statistical analysis. Automated image analysis was performed with a script developed on Acapella High Content Imaging and Analysis Software (PerkinElmer). Output: Number of H9c2 Host Cardiomyocytes nuclei to determine drug-related cytotoxicity.; assay type: functional, organism-based, Rattus norvegicus; details: H9c2, 4 h
Trypanosoma cruzi [3] = test: as §1, with “Trypanosoma cruzi” for “H2C9”, “Amastigotes/Cell.” for “H9c2 Host Cardiomyocytes.”, “number” for “Number”, “amastigotes per cell as infection level measurement.” for “H9c2 Host Cardiomyocytes nuclei to determine drug-related cytotoxicity.”; assay type: functional, organism-based, Rattus norvegicus; details: H9c2, 4 h
[4] = tested on: Trypanosoma brucei brucei; test: GSK_TCAKS: pIC50 Trypanosoma brucei viability assay using fluorescence intensity. Assay plates (1536-well) were prepared by dispensing 25nL of compound solution per well using an Echo acoustic dispenser (Labcyte).; assay type: functional, organism-based; details: Lister 427, 2 h
Trypanosoma cruzi [5] = test: GSK_TCAKS: pIC50 Trypanosoma cruzi viability assay using beta-GAL activity. This assay was run at single shot at 5uM compound concentration per well. The biological reagents consisted of NIH-3T3 host cells and trypomastigotes parasitic cells; both cell types were set to a 3.3 * 10^5 cells/mL dilution in assay DMEM by means of a CASY cell counter device using a 60um capillary. 6 uL of the mixture were dispensed per well (about 1 * 10^3 host-cells and 1 * 10^3 parasites) with a Multidrop Combi dispenser. […] In all wells, the percentage of DMSO never exceeded 0.5%. Plates incubated for four days at 37C, 5% CO2. The substrate used for the assay fluorescence intensity (FLINT) readout was resorufin-beta-D-galactopiranoside (Sigma-Aldrich) at 5uM per well. It was diluted in PBS supplemented with the soft detergent Igepal (Fluka).; assay type: functional, organism-based, Mus musculus; details: Tulahuen, NIH3T3
[6] = GSK_TCAKS: pIC50 HepG2 human cell line viability assay using luminiscence. […] Seeding density was checked to ensure that new mono-layers were not more than 50% confluent at the time of harvesting. Cell suspension was added to 500 mL of the same medium at a final density of 1.2 * 10^5 cells/mL. This cell suspension was dispensed (25 uL, 3000 cells per well) into 384-well clear-bottom plates using a Multidrop Combi dispenser. Prior to addition of the cell suspension, the screening compounds (250 nL) were pre-dispensed into the plates with an Echo liquid handler. Plates were incubated for 48 h at 37C, 5% CO2. After incubation, plates equilibrated at room temperature for 30 min before proceeding to develop the luminescent signal. The signal developer, CellTiter-Glo Reagent, was allowed to equilibrate at room temperature for 30 min and added to the plates (25uL per well) using a Multidrop Combi dispenser. Plates were left for 10 min at room temperature for stabilization and then read using a ViewLux.; assay type: toxicity, cell-based
Trypanosoma cruzi [7] = test: as §1, with “Trypanosoma cruzi” for “H2C9”, “Infected Cells.” for “H9c2 Host Cardiomyocytes.”, “percentage” for “Number”, “infected cells per well as a second infection marker.” for “H9c2 Host Cardiomyocytes nuclei to determine drug-related cytotoxicity.”; assay type: functional, organism-based, Rattus norvegicus; details: H9c2, 4 h
Leishmania donovani [8] = test: GSK_TCAKS: pIC50 Leishmania donovani Imaging: Amastigotes/Macrophages. Assay plates (384-well) were prepared by adding 250nL of compound to each well. For single shot assay, the final compound concentration was 5 uM. […] Automated image analysis was performed with a script developed on Acapella High Content Imaging and Analysis Software (PerkinElmer). Output: Average number of amastigotes per macrophage cell were reported for each well.; assay type: functional, organism-based, Homo sapiens; details: THP-1
Leishmania donovani [9] = test: GSK_TCAKS: pIC50 Leishmania donovani viability assay using fluorescence intensity. Assay plates (1536-well) were prepared by adding 30nL per well of compound. For single shot assay, the final compound concentration was 5uM. […] Briefly, eGFP LdBOB axenic amastigotes were harvested, fixed and counted in a CASY cell counter (Roche-Applied Science). A final concentration of 1.5 * 10^5 cells per well were prepared in amastigote media containing 500 U/mL penicillin/streptomycin (Invitrogen) and 6uL was dispensed to each experimental well using a Multidrop Combi dispenser (Thermo Scientific). 6uL of assay media was dispensed to control columns used as reference for 100% compound response. Following incubation for 72 h at 37C, 5% CO2, 2 uL of resazurin was added to each well at a final concentration of 0.5 mM in phosphate buffered saline (PBS) with IGEPAL (Sigma-Aldrich), 0.05% (v/v).; assay type: functional, organism-based
Leishmania donovani [10] = test: GSK_TCAKS: pIC50 Leishmania donovani Imaging: Infected Macrophages. Assay plates (384-well) were prepared by adding 250nL of compound to each well. For single shot assay, the final compound concentration was 5 uM. […] Automated image analysis was performed with a script developed on Acapella High Content Imaging and Analysis Software (PerkinElmer). Output: Percent of infected macrophage cells were reported for each well.; assay type: functional, organism-based, Homo sapiens; details: THP-1
Leishmania donovani [11] = test: GSK_TCAKS: pIC50 Leishmania donovani Imaging: THP-1 Host Macrophages. Assay plates (384-well) were prepared by adding 250nL of compound to each well. For single shot assay, the final compound concentration was 5 uM. […] Automated image analysis was performed with a script developed on Acapella High Content Imaging and Analysis Software (PerkinElmer). Output: THP-1 cell count were reported for each well.; assay type: functional, organism-based, Homo sapiens
[12] = target: Sterol 14-alpha demethylase (Trypanosoma cruzi (strain CL Brener), UniProt Q7Z1V1); test: GSK_TCAKS: pIC50 CYP51 from Trypanosoma cruzi.; assay type: functional
Sterol 14-alpha demethylase, sequence (Q7Z1V1 whole entry): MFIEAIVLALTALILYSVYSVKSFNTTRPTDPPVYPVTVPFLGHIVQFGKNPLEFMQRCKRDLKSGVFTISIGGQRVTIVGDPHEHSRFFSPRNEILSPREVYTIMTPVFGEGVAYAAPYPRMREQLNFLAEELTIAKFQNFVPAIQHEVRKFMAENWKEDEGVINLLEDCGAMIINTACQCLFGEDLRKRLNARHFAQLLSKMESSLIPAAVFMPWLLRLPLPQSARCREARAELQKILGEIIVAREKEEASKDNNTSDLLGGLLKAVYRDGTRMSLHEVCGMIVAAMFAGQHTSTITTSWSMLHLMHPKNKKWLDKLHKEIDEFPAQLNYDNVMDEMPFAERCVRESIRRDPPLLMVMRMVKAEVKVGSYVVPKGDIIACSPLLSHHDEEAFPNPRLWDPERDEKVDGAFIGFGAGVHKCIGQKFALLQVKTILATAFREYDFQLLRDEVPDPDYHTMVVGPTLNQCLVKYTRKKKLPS

Row | SMILES | IC50 [1] [µM] | IC50 (Trypanosoma cruzi [2]) [µM] | IC50 (Trypanosoma cruzi [3]) [µM] | IC50 [4] [µM] | IC50 (Trypanosoma cruzi [5]) [µM] | IC50 at 48 h [6] [µM] | IC50 (Trypanosoma cruzi [7]) [µM] | IC50 (Leishmania donovani [8]) [µM] | IC50 (Leishmania donovani [9]) [µM] | IC50 (Leishmania donovani [10]) [µM] | IC50 (Leishmania donovani [11]) [µM] | IC50 [12] [µM]
1 | c1ccc2sc(Nc3nc4ncccc4[nH]3)nc2c1 | 1.58 | 1 | 1.26 | 1 | 1 | 20 | 1.58 | 1.26 | 1.58 | 2.51 | 15.8 | –
2 | N=C(N)Nc1nc(-c2ccc(NC(=N)NCCN3CCCC3)cc2)cs1 | 0.1 | > 50.1 | > 50.1 | 0.0398 | > 50.1 | > 100 | > 50.1 | > 50.1 | > 50.1 | > 50.1 | > 50.1 | –
3 | O=C1c2cnc(N3CCCC3)nc2CN1c1ccc2c(c1)OCO2 | – | – | – | – | 2.51 | > 100 | – | 6.31 | 6.31 | 10 | > 50.1 | > 100
4 | COc1ccc(Cc2nnc(-c3ncc4cccnc4c3O)[nH]2)cc1OC | – | – | – | – | 1.26 | 50.1 | – | 2.51 | 0.316 | 3.16 | 20 | > 100
5 | Cc1nn(-c2nc3ccccc3[nH]2)c2c1C(c1ccc(O)cc1)CC(=O)N2 (configuration not stated) | – | – | – | – | – | 25.1 | – | 0.501 | 0.794 | 1 | 6.31 | 25.1
6 | COc1ccc(NS(=O)(=O)c2ccc(S(=O)(=O)N(C)C3CCCCC3)cc2)c2ncccc12 | – | – | – | – | – | > 100 | – | 0.158 | > 50.1 | 0.316 | > 50.1 | –
7 | [O-][s+]1nc(NCCCN(Cc2ccc(F)cc2)c2ccccn2)c(NCc2ccncc2)n1 (configuration not stated) | 0.501 | > 50.1 | 39.8 | 0.316 | 31.6 | 79.4 | 50.1 | 25.1 | > 50.1 | > 50.1 | 25.1 | –
8 | C=CC[C@@H]1CC=C[C@@H](C)N1C(=O)CCc1nnc(-c2ccc3c(c2)OCO3)o1 | – | – | – | – | – | > 100 | – | 3.16 | 6.31 | 7.94 | 12.6 | 39.8
9 | COCc1cc(Nc2cccc(Cl)c2)nc(-c2ccccn2)n1 | – | – | – | – | – | 39.8 | – | 0.631 | 2.51 | 1.58 | > 50.1 | –
10 | Cc1[nH]nc(-c2nc3ccccc3[nH]2)c1C(=O)NC1CCCNC1 (configuration not stated) | 0.501 | 3.16 | 0.0398 | 0.398 | 0.794 | > 100 | 0.0631 | 6.31 | 10 | 6.31 | 1.58 | –
11 | Nc1nc(-c2ccccn2)nc(-n2nc(-c3cccc(C(F)(F)F)c3)cc2N)n1 | – | – | – | – | – | 20 | – | 0.501 | 10 | 0.794 | 5.01 | > 100
12 | Oc1c(-c2nnc(Cc3ccc(Cl)cc3)[nH]2)ncc2cccnc12 | – | – | – | – | – | 39.8 | – | 1 | 0.251 | 1.26 | 20 | 31.6
13 | COc1ccc(Oc2ccc(C(C)N(C)c3ncc4c(N)nc(N)nc4n3)cc2)cc1 (configuration not stated) | – | – | – | – | – | 39.8 | – | 0.0501 | 0.0398 | 0.1 | 15.8 | 1.58
14 | c1ccc(-c2nc(NC3CCCCC3)cc(C3CC3)n2)nc1 | – | – | – | – | – | 39.8 | – | 3.16 | 0.794 | 3.98 | 20 | > 100
15 | CNS(=O)(=O)c1ccccc1Nc1nc(Nc2ccnn2C)ncc1Cl | 0.1 | – | 0.631 | 0.0631 | 0.398 | 50.1 | 1 | 0.398 | – | 0.631 | – | 31.6
16 | Oc1c(-c2nnc(Cc3ccc(F)cc3)[nH]2)ncc2cccnc12 | – | – | – | – | 0.158 | 25.1 | – | 1 | 0.126 | 1 | 20 | > 100
17 | COc1ccccc1C(=O)Nc1nnc(-c2ccc3c(c2)OCO3)s1 | – | – | – | – | 2.51 | > 100 | – | 0.631 | 1 | 1 | 15.8 | > 100
